Earlier results on 1 compound are cited in patent US10603302B2, “Water soluble flavonoids” (priority 2017, dated 2020).

The conditions of the data set: background statement.

Regarding `O=C1c2c(O)cc(O)cc2OC(c2ccc(O)c(O)c2)C1O` (stereo not shown) [Taxifolin, 5,7,31,41-tetrahydroxyflavanol,dihydroquercetin], the solubility in water entry was “slightly soluble in water”.
